In PubChem BioAssay AID1963860 (Molecular Pharmacology Branch, DTP, NCI, 2024):

Tested on: CN0375-F725-PDC KRAS spheroid viability
Assay: Anticancer human tumor CN0375-F725-PDC patient-derived colon carcinoma cell line growth inhibition [KRAS2]
Details: spheroids with HUVEC and MSC; for viability, T/C: stronger effect = lower value
Description: Multicellular complex tumor spheroid response to RAS pathway inhibitors in combination with a targeted agents in patient-derived cell lines with oncogenic KRAS variants from multiple cancer types
A high-throughput screen of multi-cell type tumor spheroids was designed to identify active combinations of targeted small molecules and KRAS pathway inhibitors. Complex spheroids include a stromal component modeled by human endothelial cells (HUVEC) and fibroblasts modeled by human mesenchymal stem cells (MSCs). The concentration ranges selected for each drug and investigational agent were based upon clinically achievable concentrations if the clinical Cmax of the agent was known.
Compounds. The drugs and investigational agents: BI-3406 (NSC825286), BAY-293 (NSC824723), batoprotafib (TNO155; NSC825523), sotorasib (AMG 510; NSC818433), MRTX1257 (NSC819558), elimusertib (BAY 1895344; NSC800525), molibresib (GSK525762; NSC774829), temuterkib (LY3214996; NSC803410), venetoclax (NSC766270), alisertib (NSC759677), olaparib (NSC753686), talazoparib (NSC767125), erdafitinib (NSC781556), ipatasertib (NSC767898), cabozantinib (NSC761068), nintedanib (NSC756659), abemaciclib (NSC768073), docetaxel (NSC628503), trametinib (NSC758246), and sapanisertib (NSC764658) were obtained from the National Cancer Institute (NCI) Developmental Therapeutics Program Chemical Repository. The FDA-approved anticancer drug set is available from the Developmental Therapeutics Program. […] The stock solutions were prepared in dimethyl sulfoxide (DMSO, Sigma-Aldrich, St. Louis, MO, cat. D2650) at 800-fold the tested concentration and stored at -70 degrees C prior to their use. All drugs and investigational agents were tested over a range starting from a high concentration at or near the clinical Cmax and decreasing in half-log increments. If the clinical Cmax for an agent had not been determined, the highest concentration tested was 10 microM.
Cell Culture. All cells were maintained in an incubator at 37 degrees C and 5% CO2 with 95% humidity. The PDC lines were cultured according to standard operating procedures established by the NCI PDMR (https://pdmr.cancer.gov/sops/default.htm). Briefly, all PDCs were thawed and cultured in Matrigel-coated flasks prepared with a working solution of 1X Ham's F-12 nutrient mix, without supplementation (Invitrogen, Waltham, MA, cat. 11765054), 100 U/mL penicillin-streptomycin (Invitrogen, cat. 15140122), and 2.5% Matrigel (Corning Inc., Corning, NY, cat. 354248) for the first three passages. All PDCs were cultured in complete DMEM/F-12 media containing advanced DMEM/F-12 (Invitrogen, cat. 12634028), 4.9% defined fetal bovine serum, heat inactivated (HyClone Laboratories Inc., Logan, UT, cat. SH30070.03HI), 389 ng/mL hydrocortisone (Sigma-Aldrich, cat. H4001), 9.7 ng/mL human EGF recombinant protein (Invitrogen, cat. PHG0313), 23.4 microg/mL adenine (Sigma-Aldrich, cat. A2786), 97.3 U/mL penicillin-streptomycin (Invitrogen, cat. 15140122), 1.9 mM L-glutamine (Invitrogen, cat. 25030081), and 9.7 microM Y-27632 dihydrochloride (Tocris Bioscience, Bristol, United Kingdom, cat. 1254). The PDCs were cultured in complete DMEM/F12 media without 9.7 microM Y-27632 dihydrochloride for at least two passages prior to the screen. The established cell line HOP-62 was cultured in RPMI 1640 medium, HEPES (Invitrogen, cat. 22400105) with 10% defined fetal bovine serum (HyClone Laboratories Inc., cat. SH30070.03) and 2 mM L-glutamine (Invitrogen, cat. 25030081). The pooled donor HUVEC were cultured in endothelial cell growth medium 2 (PromoCell, Heidelberg, Germany, cat. C-22011) and the hMSC were cultured in mesenchymal stem cell growth medium 2 (PromoCell, cat. C-28009). For all experiments, HUVEC and hMSC were used at passages </=5, while the malignant cell lines were used at passages </=15. […]

[1] = curve of first compound, second compound 0.1 µM
[2] = curve of first compound, second compound 0.316 µM
[3] = curve of first compound, second compound 1 µM
[4] = curve of first compound, second compound 3.16 µM
[5] = second compound 0.1 µM, first compound 0.0316 µM
[6] = second compound 0.1 µM, first compound 0.1 µM
[7] = second compound 0.1 µM, first compound 0.316 µM
[8] = second compound 0.1 µM, first compound 1 µM
[9] = second compound 0.1 µM, first compound 3.16 µM
[10] = second compound 0.1 µM, first compound 10 µM
[11] = second compound 0.316 µM, first compound 0.0316 µM
[12] = second compound 0.316 µM, first compound 0.1 µM
[13] = second compound 0.316 µM, first compound 0.316 µM
[14] = second compound 0.316 µM, first compound 1 µM
[15] = second compound 0.316 µM, first compound 3.16 µM
[16] = second compound 0.316 µM, first compound 10 µM
[17] = second compound 1 µM, first compound 0.0316 µM
[18] = second compound 1 µM, first compound 0.1 µM
[19] = second compound 1 µM, first compound 0.316 µM
[20] = second compound 1 µM, first compound 1 µM
[21] = second compound 1 µM, first compound 3.16 µM
[22] = second compound 1 µM, first compound 10 µM
[23] = second compound 3.16 µM, first compound 0.0316 µM
[24] = second compound 3.16 µM, first compound 0.1 µM
[25] = second compound 3.16 µM, first compound 0.316 µM
[26] = second compound 3.16 µM, first compound 1 µM
[27] = second compound 3.16 µM, first compound 3.16 µM
[28] = second compound 3.16 µM, first compound 10 µM
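Note: spheroids exposed to agents for 7 days.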

Structure (SMILES)	IC50 [1]	IC50 [2]	IC50 [3]	IC50 [4]	viability, T/C [5]	viability, T/C [6]	viability, T/C [7]	viability, T/C [8]	viability, T/C [9]	viability, T/C [10]	viability, T/C [11]	viability, T/C [12]	viability, T/C [13]	viability, T/C [14]	viability, T/C [15]	viability, T/C [16]	viability, T/C [17]	viability, T/C [18]	viability, T/C [19]	viability, T/C [20]	also measured
O=C(c1cc(Cc2n[nH]c(=O)c3ccccc23)ccc1F)N1CCN(C(=O)C2CC2)CC1 + C=CC(=O)N1CCN(c2nc(OCC3CCCN3C)nc3c2CCN(c2cccc4cccc(C)c24)C3)CC1CC#N	> 10 µM	> 10 µM	> 10 µM	< 0.0316 µM	108%	107%	101%	98.8%	104%	99.3%	101%	107%	97.5%	99.6%	101%	92.5%	100%	102%	97.9%	90.6%	IC50 (curve of first compound, second compound 0.0316 µM): > 10 µM; viability, T/C (second compound 0.0316 µM, first compound 0.0316 µM): 104%; viability, T/C (second compound 0.0316 µM, first compound 0.1 µM): 104%; viability, T/C (second compound 0.0316 µM, first compound 0.316 µM): 99%; viability, T/C (second compound 0.0316 µM, first compound 1 µM): 102%; viability, T/C (second compound 0.0316 µM, first compound 3.16 µM): 99.4%; viability, T/C (second compound 0.0316 µM, first compound 10 µM): 94.7%; viability, T/C [21]: 103%; viability, T/C [22]: 89%; viability, T/C [23]: 34.1%; viability, T/C [24]: 29%; viability, T/C [25]: 21.5%; viability, T/C [26]: 22.7%; viability, T/C [27]: 28.9%; viability, T/C [28]: 8.54%
COc1cc2nccc(Oc3ccc(NC(=O)C4(C(=O)Nc5ccc(F)cc5)CC4)cc3)c2cc1OC	–	–	–	–	–	–	–	–	–	–	–	–	–	–	–	–	–	–	–	–	viability, T/C (compound 0.0316 µM): 102% [middle of 5 runs]; viability, T/C (compound 0.1 µM): 97.5% [middle of 5 runs]; viability, T/C (compound 0.316 µM): 92.5% [middle of 5 runs]; viability, T/C (compound 1 µM): 88.5% [middle of 5 runs]; viability, T/C (compound 3.16 µM): 57.1% [middle of 5 runs]; viability, T/C (compound 10 µM): 67.7% [middle of 5 runs]; IC50 (curve of compound): > 10 µM
CC(C)NCC(C(=O)N1CCN(c2ncnc3c2C(C)CC3O)CC1)c1ccc(Cl)cc1 (configuration not stated) + CNCc1ccccc1-c1csc(C(C)Nc2nc(C)nc3cc(OC)c(OC)cc23)c1	> 10 µM	> 10 µM	0.37 µM	< 0.0316 µM	107%	103%	93.1%	82.6%	89.5%	78.7%	99.4%	98.2%	88.5%	85.2%	80%	61.8%	56.6%	57.2%	48.4%	45.2%	IC50 (curve of first compound, second compound 10 µM): < 0.0316 µM; viability, T/C [21]: 30.1%; viability, T/C [22]: 16%; viability, T/C [23]: 0.23%; viability, T/C [24]: 0.3%; viability, T/C [25]: 0.25%; viability, T/C [26]: 0.28%; viability, T/C [27]: 0.31%; viability, T/C [28]: 0.32%; viability, T/C (second compound 10 µM, first compound 0.0316 µM): 0.14%; viability, T/C (second compound 10 µM, first compound 0.1 µM): 0.14%; viability, T/C (second compound 10 µM, first compound 0.316 µM): 0.16%; viability, T/C (second compound 10 µM, first compound 1 µM): 0.14%; viability, T/C (second compound 10 µM, first compound 3.16 µM): 0.13%; viability, T/C (second compound 10 µM, first compound 10 µM): 0.2%
